Assay results as given in publication PMC11606603, “The membrane domains of mammalian adenylyl cyclases are lipid receptors” (eLife, 2024).
Where “and” joins values, the source holds several entries; their conditions need not be identical. Equal values may be shown once.

Test system: mAC1-C1/mAC2-C2
Assay: AC assay, Gsα-stimulated soluble catalytic dimer
Format: biochemical
Procedure: In a volume of 10 μl, AC activities were measured using 1 mM ATP, 2 mM MgCl2, 3 mM creatine phosphate, 60 μg/ml creatine kinase, and 50 mM MOPS pH 7.5. The cAMP assay kit from Cisbio (Codolet, France) was used for detection according to the supplier’s instructions. For each assay, a cAMP standard curve was established. EC50 and IC50 values were calculated by GraphPad Prism version 8.4.3 for Windows, GraphPad Software, San Diego, CA, USA, https://www.graphpad.com .

CCCCCCCC/C=C\CCCCCCCC(=O)O [Oleic acid, Oleic ((9Z)-octadecenoic) acid]
AC activity (%); stimulated by 300nM Gsα, mAC1-C1/mAC2-C2 (Oleic acid 0.3 µM): 100% | AC activity (%); stimulated by 300nM Gsα, mAC1-C1/mAC2-C2 (Oleic acid 1 µM): 93% and 84% and 72% | AC activity (%); stimulated by 300nM Gsα, mAC1-C1/mAC2-C2 (Oleic acid 3 µM): 77% and 90% and 82% | AC activity (%); stimulated by 300nM Gsα, mAC1-C1/mAC2-C2 (Oleic acid 6 µM): 78% and 77% and 84% | AC activity (%); stimulated by 300nM Gsα, mAC1-C1/mAC2-C2 (Oleic acid 10 µM): 68% and 70% and 67% | AC activity (%); stimulated by 300nM Gsα, mAC1-C1/mAC2-C2 (Oleic acid 20 µM): 74% and 77% and 65%
